What is called IC50 is the midpoint of a concentration-inhibition curve. Usually inhibition stands for the share of the control response that was lost under treatment.

The text below walks through data of US5760036A, “Aminediol protease inhibitors” (E. R. Squibb & Sons, Inc., priority 1995, dated 1998).

One test deals with T1, HIV protease (Human immunodeficiency virus type 1 group M subtype B, UniProt P04585).
T1 construct: and purified protease
Nature of the test: HIV Protease Assay. The test is classed as biochemical. In outline:
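At a single final concentration of 10 μM (4% DMSO), inhibitors were added to a 30-minute, 37° C reaction of purified enzyme with 450 μM H2N-Val-Ser-Gln-Asn-(β-naphthyl-alanine)-Pro-Val-Ile-OH at pH 5.5 (sodium acetate, BSA). Hydrolysis was quantified by reverse-phase HPLC with 220 nm detection after acid quench.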

Test [1] concerns RF strain of HIV (CEM-SS cells). Nature of the test: Cell Culture Anti-HIV Activity (cell viability, formazan). The test is classed as cell-based. Particulars: CEM-SS cells, RF strain of HIV, multiplicity of infection 0.04, 6 days at 37° C., 450 nm, read-out: HIV (CEM Cells) IC50. In outline: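 Half-log compound dilutions added to CEM-SS cells (5000/well) carrying HIV RF (MOI 0.04), 6 days, 37° C. Cell protection measured as formazan from tetrazolium, A450. IC50: drug level restoring infected-cell formazan to 50% of the uninfected untreated control.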

[2] abbreviates: 10 μM inhibitor, 4% DMSO, 450 μM substrate, pH 5.5, 30 minutes at 37° C., RP-HPLC.
Where [3] appears, read: Human immunodeficiency virus 1, CEM-SS, 144 h.
Setting [4] is: pH 5.5, 10 μM inhibitor, 4% DMSO, 450 μM substrate, pH 5.5, 30 minutes at 37° C., RP-HPLC, read-out: HIV Protease % Inhibition at 10 μM.

Like-named read-outs stand apart in the source and are kept apart here.

`CC(C)(C)OC(=O)N[C@@H](Cc1ccccc1)[C@H](O)CNC[C@@H](O)[C@H](Cc1ccccc1)NC(=O)C(O)(CO)C(C)(C)C` (single isomer, unassigned; isomer a) [Compound 366, [1S-[1R*,2S*(2S*,3R*)]]-[3-[[3-[[2-Hydroxy-2-(hydroxymethyl)-3.3-dimethyl-1-oxobutyl]amino]-2-hydroxy-4-phenylbutyl]amino]-2-hydroxy-1-(phenylmethyl)propyl]carbamic acid. 1.1-dimethylethyl ester, isomer A]: the “HIV Protease % Inhibition at 10 μM” value on HIV protease (setting [2]) is reported as 99%. In addition, the IC50 in test [1] (setting [3]) amounted to 9 nM.

`CC(C)(CO)OC(=O)N[C@@H](Cc1ccccc1)[C@H](O)CNC[C@@H](O)[C@H](Cc1ccccc1)NC(=O)C1(O)CCCC1(C)C` (single isomer, unassigned; isomer a) [Compound 368, [1S-[1R*,2S*(2S*,3R*)] -[3-[[3-[[(2,2-Dimethyl-1-hydroxycyclopentyl)-carbonyl]amino]-2-hydroxy-4-phenylbutyl]amino]-2-hydroxy-1-(phenylmethyl)propyl]carbamic acid, 2-hydroxy-1,1-dimethylethyl ester, isomer A]: at HIV protease (setting [4]), the inhibition at 10 µM worked out at 98%. In test [1] (setting [3]), the IC50 is 17 nM.

Consider `CC(C)(C)OC(=O)N[C@@H](Cc1ccccc1)[C@H](O)CNC[C@@H](O)[C@H](Cc1ccccc1)NC(=O)C1NC(=O)OC1(C)C` (single isomer, unassigned; isomer b) [Compound 240, [1S-[1R*,2S*(2S*,3R*)]]-[3-[[3-[[(5,5-Dimethyl-2-oxo-4-oxazolidinyl)carbonyl]amino]-2-hydroxy-4-phenylbutyl]amino]-2-hydroxy-1-(phenylmethyl)propyl]carbamic acid, 1,1-dimethylethyl ester, isomer B], for which the “HIV Protease % Inhibition at 10 μM” value at HIV protease (setting [2]) worked out at 99%. Besides, in test [1] (setting [3]), the IC50 was determined as 2000 nM.

For `CC(C)(C)OC(=O)N[C@@H](Cc1ccccc1)[C@H](O)CNC[C@@H](O)[C@H](Cc1ccccc1)NC(=O)C(NC(=O)OCc1ccccc1)C(C)(C)O` (single isomer, unassigned; isomer b) [Compound 302, [1S-[1R*,2S*(2S*,3R*)]]-[1-[[[3-[[(1,1-Dimethylethoxy)carbonyl]amino]-2-hydroxy-4-phenylbutyl]amino]-2-hydroxy-1-(phenylmethyl)propyl]amino]carbonyl]-2-hydroxy-2-methylpropyl]carbamic acid, phenylmethyl ester, isomer B], at HIV protease (setting [4]), the inhibition at 10 µM stood at 99%. In test [1] (setting [3]), the IC50 turned out to be 250 nM.

In the case of `CC(C)(C)OC(=O)N[C@@H](Cc1ccccc1)[C@H](O)CNC[C@@H](O)[C@H](Cc1ccccc1)NC(=O)C(NC(=O)OCc1ccccc1)C(C)(C)CO` (single isomer, unassigned; isomer b) [Compound 309, [1S-[1R*,2S*(2S*, 3R*)]]-[1-[[[3-[[(1,1-Dimethylethoxy)carbonyl]amino]-2-hydroxy-4-phenylbutyl]amino]-2-hydroxy-1-(phenylmethyl)-propyl]amino]carbonyl]-2-(hydroxymethyl)-2-methylpropyl]carbamic acid, phenylmethyl ester. isomer B], the “HIV Protease % Inhibition at 10 μM” value on HIV protease (setting [2]) is on record as 100%. In addition, the IC50 in test [1] is 1800 nM.

`CC(C)(C)OC(=O)N[C@@H](Cc1ccccc1)[C@H](O)CNC[C@@H](O)[C@H](Cc1ccccc1)NC(=O)C1(O)CCCC1(C)C` (single isomer, unassigned; isomer b) [Compound 322, [1S-[1R*,2S*(2S*,3R*)]]-[3-[[3-[[2,2-Dimethyl-1-hydroxycyclopentyl)-carbonyl]amino]-2-hydroxy-4-phenylbutyl]amino]-2-hydroxy-1-(phenylmethyl)-propyl]carbamic acid, 1,1-dimethylethyl ester, isomer B]: the “HIV Protease % Inhibition at 10 μM” value at HIV protease turned out to be 100%. In addition, the IC50 in test [1] was 20 nM.

For `CC1(C)CCCC1(O)C(=O)N[C@@H](Cc1ccccc1)[C@H](O)CNC[C@@H](O)[C@H](Cc1ccccc1)NC(=O)C1(O)CCCC1(C)C` (single isomer, unassigned; isomer b) [Compound 337], the “HIV Protease % Inhibition at 10 μM” value on HIV protease (setting [2]) is reported as 99%. Also, in test [1], the IC50 came out at 290 nM.

In the case of `CC(C)(C)OC(=O)N[C@@H](Cc1ccccc1)[C@H](O)CNC[C@@H](O)[C@H](Cc1ccccc1)NC(=O)C(C)(O)C(C)(C)CO` (single isomer, unassigned; isomer b) [Compound 357, [1S-[1R*,2S*(2S*,3R*)]]-[3-[[3-[(2,4-Dihydroxy-2,3,3-trimethyl-1-oxobutyl)amino]-2-hydroxy-4-phenylbutyl]amino]-2-hydroxy-1-(phenylmethyl)propyl]carbamic acid, 1,1-dimethylethyl ester, isomer B], the “HIV Protease % Inhibition at 10 μM” value at HIV protease worked out at 99%. The IC50 in test [1] is 110 nM.

As for `CC(C)(C)OC(=O)N[C@@H](Cc1ccccc1)[C@H](O)CNC[C@@H](O)[C@H](Cc1ccccc1)NC(=O)OC(C)(C)C` [Compound 2, [1S-[1R*,2S*(2S*,3R*)]]-[3-[[3-[[(1,1-Dimethylethoxy)carbonyl]amino]-2-hydroxy-4-phenylbutyl]amino]-2-hydroxy-1-(phenylmethyl)propyl]carbamic acid, 1,1-dimethylethyl ester], at HIV protease (setting [4]), the inhibition at 10 µM was 100%. For the same compound, the IC50 in test [1] (setting [3]) came out at 90 nM.

For the compound `CC(C)(C)OC(=O)N[C@@H](Cc1ccccc1)[C@@H](O)CNC[C@H](O)[C@H](Cc1ccccc1)NC(=O)OC(C)(C)C` [Compound 3, [1S-[1R*,2R*(2R*,3R*)]]-[3-[[3-[[(1,1-Dimethylethoxy)carbonyl]amino]-2-hydroxy-4-phenylbutyl]amino]-2-hydroxy-1-(phenylmethyl)propyl]carbamic acid, 1,1-dimethylethyl ester], the inhibition at 10 µM at HIV protease (setting [4]) is 0%. In test [1] (setting [3]), the IC50 was > 3200 nM.

Take `CC(C)(C)OC(=O)N[C@@H](Cc1ccccc1)[C@H](O)CNC[C@H](O)[C@H](Cc1ccccc1)NC(=O)OC(C)(C)C` [Compound 5, [1S-[1R*,2S*(2R*,3R*)]]-[3-[[3-[[(1,1-Dimethylethoxy)carbonyl]amino]-2-hydroxy-4-phenylbutyl]amino]-2-hydroxy-1-(phenylmethyl)propyl]carbamic acid, 1,1-dimethylethyl ester]: the inhibition at 10 µM at HIV protease (setting [4]) amounted to 41%. In addition, in test [1] (setting [3]), the IC50 amounted to 2800 nM.

Regarding `CC(C)(C)OC(=O)N1Cc2ccccc2CC1C(O)CNCC(O)C1Cc2ccccc2CN1C(=O)OC(C)(C)C` (stereo not drawn) [Compound 11, [R-(R*,R*)]-3,3'[Iminobis(1-hydroxy-2,1-ethanediyl)]-bis[2(1H)-isoquinolinecarboxylic acid], bis(1,1-dimethylethyl) ester], on HIV protease (setting [4]), the inhibition at 10 µM was found to be 0%. The IC50 in test [1] (setting [3]) is > 6000 nM.

On to `CC[C@H](C)[C@H](NC(=O)OC(C)(C)C)[C@H](O)CNC[C@@H](O)[C@@H](NC(=O)OC(C)(C)C)[C@@H](C)CC` [Compound 13, [R-(R*,S*)]-[Iminobis[2-hydroxy-1-(1-methylpropyl)-3,1-proyanediyl]]biscarbamic acid, 1,1-dimethylethyl ester], for which the inhibition at 10 µM on HIV protease (setting [4]) came to 45%. In addition, in test [1] (setting [3]), the IC50 worked out at 5300 nM.

As to `CC(C)(C)OC(=O)N[C@@H](CC1CCCCC1)[C@H](O)CNC[C@@H](O)[C@H](CC1CCCCC1)NC(=O)OC(C)(C)C` [Compound 14, [R-(R*,S*)]-[Iminobis[1-(cyclohexylmethyl)-2-hydroxy-3,1-propanediyl]]-biscarbamic acid, bis(1,1-dimethylethyl) ester], the inhibition at 10 µM on HIV protease (pH 5.5, read-out: HIV Protease % Inhibition at 10 μM) was 100%. Further, the IC50 in test [1] (setting [3]) worked out at 1100 nM.

With `CC(C)(C)OC(=O)N[C@@H](Cc1ccccc1)[C@H](O)CNC[C@@H](O)[C@H](CC1CCCCC1)NC(=O)OC(C)(C)C` [Compound 15, [1S-[1R*,2S*(2S*,3R*)]]-[3-[[4-Cyclohexyl-3-[[(1,1-dimethylethoxy)carbonyl]-amino]-2-hydroxybutyl]amino-2-hydroxy-1-(phenylmethyl)propyl]carbamic acid, 1,1-dimethylethyl ester], the inhibition at 10 µM on HIV protease (setting [4]) was 98%. Also, the IC50 in test [1] (setting [3]) stood at 380 nM.

Regarding `CC[C@H](C)[C@H](NC(=O)OCc1ccccc1)[C@H](O)CNC[C@@H](O)[C@H](Cc1ccccc1)NC(=O)OC(C)(C)C` [Compound 16, [2S-[2R*,[S*(2S*,3R*)]]-[1-Hydroxy-3-[[(1,1-dimethylethoxy)carbonyl]-amino]-2-hydroxy-4-phenylbutyl]amino]ethyl-2-methylbutyl]carbamic acid, phenylmethyl ester], the inhibition at 10 µM on HIV protease (setting [4]) came to 83%. Further, the IC50 in test [1] (setting [3]) is ≥ 2300 nM.

For `CC(C)(C)OC(=O)N[C@@H](Cc1ccccc1)[C@H](O)CNC[C@@H](O)[C@H](Cc1ccc(OCc2ccccc2)cc1)NC(=O)OCc1ccccc1` [Compound 17, [1S-[1R*,2S*(2S*,3R*)]]-[3-[[3-[[(1,1-Dimethylethoxy)carbonyl]amino]2-hydroxy-4-phenylbutyl]amino]-2-hydroxy-1-[[4-(phenylmethoxy)phenyl]methyl]propyl]carbamic acid, phenylmethyl ester], the inhibition at 10 µM on HIV protease (setting [4]) turned out to be 84%. The IC50 in test [1] (setting [3]) was > 1500 nM.
